Measured values from publication PMC9969396, “Development of Human Carbonic Anhydrase II Heterobifunctional Degraders” (Journal of Medicinal Chemistry, 2023).
Where two headings read alike, the source gives them in different places.

Columns and labels:
hCAII [1] = biological target: T1, hCAII (Homo sapiens, UniProt P00918+Q96SW2); assay: nine-point dose response hCAII degradation assay in HEK293 cells, western blot; format: cell-based; conditions: 24 h; for Dmax: HEK293, HEK293 cells, read-out: DMax (maximum percentage of degradation); for hook effect (attenuation of target degradation at high concentration): doses up to 15 μM
T1 construct: HEK293 cells, a line known to abundantly express hCAII; endogenous in cells; host or cells: HEK293
Procedure: Three biological replicates of HEK293 cells were dosed in parallel with 4 or 5 at concentrations ranging from 5 pM to 15 μM for 24 h prior to lysis. […] This phenomenon can be attributed to the binary complexes of degrader-POI and degrader-E3 ligase outcompeting the POI-degrader-E3 ligase ternary complex at high degrader concentrations. […] The half-maximal degradation (DC50 value reported as a 95% confidence interval) and maximum percentage of degradation (DMax) of each active degrader were determined using a least squares sigmoidal fitting of the degradation activity of dosing concentrations below the observable “hook effect” (Figure 2B).
Figure 3 Dose-dependent degradation of hCAII by 4 and 5. (A) Western blot images of HEK293 cells dosed for 24 h with degrader 4 (left) or 5 (right) at concentrations of 5 pM to 15 μM. (B) Dose response curves of hCAII abundance as a percent of DMSO vehicle for 4 (left) or 5 (right). Band intensities of blots from three biological replicates were quantified using ImageJ software (Experimental Section). Data were normalized to a vehicle-treated (DMSO) group and plotted as a sigmoidal curve. Nonlinear fitting of log([inhibitor]) vs response (three parameters) was generated for 4 with R^2 = 0.955 and 5 with R^2 = 0.855 in GraphPad Prism. Points marked with an asterisk indicate only two biological replicates. In all other cases, error bars represent the standard deviation of triplicate experiments. Full images of the western blots are provided in the Supporting Information (Figures S1 and S3).
Given the inactivity of 1–3 and increased potency of 4 over 5, a 12-atom linker appeared to be a preferred length for favorable ternary complex formation in the heterobifunctional degraders tested. To further examine the role of linker length and composition, we explored hydrocarbon linkers for their ability to improve degrader lipophilicity and membrane permeability without impacting the favorable ternary complex formation. […] Western blot analysis and quantification of three biological replicates identified the degradation of hCAII at concentrations of 11 as low as 50 pM and achieved near-complete hCAII degradation at concentrations of 5 nM (Figures 5A and S3).
After reaching 90% confluency, HEK293 cells were trypsinized, counted, and plated with 2 mL media at 2 × 10^6 cells per well on a tissue-culture-treated, 6-well plate. At the appropriate number of hours before reaching ∼90% confluency, cells were treated with DMSO solutions of the appropriate compounds (final concentration 0.5% DMSO per well). Upon reaching 90% confluency, typically 72 h, culture media were removed and the cells were washed with cold Dulbecco’s phosphate-buffered saline (DPBS). Lysis buffer, composed of cell lysis buffer (Cell Signaling Technology, 9803), protease inhibitor cocktail (Cell Signaling Technology, 5872), and 1 mM phenylmethylsulfonylfluoride, was added to each well, and the plates were rocked at 4 °C for 20 min. Cells were then scraped from the bottom of the plates, and the supernatant was collected after spinning down at 14,000g at 4 °C for 10 min and frozen at −80 °C. Lysates were thawed on ice, and the total protein concentration was measured using a Pierce bicinchoninic acid protein assay (Thermo Fisher Scientific, 23225). […] Following heating at 98 °C for 5 min and cooling to room temperature, the prepared samples were electrophoretically separated on a 4–20% TGX gel (Bio-Rad, 4568095) and transferred to a PVDF membrane (Amersham Hybond P 0.45 μm, 106000019) in a tris-glycine transfer buffer (Thermo Fisher Scientific, LC3675) with a 20% final MeOH concentration. The membrane was rocked at 4 °C with fluorescent blocking buffer (Thermo Fisher Scientific, 37565) for 1 h and then incubated with primary antibodies (hCAII Rabbit mAb, 1:1000 and β-actin Rabbit pAb, 1:2000 in fluorescent blocking buffer) at 4 °C overnight. […]

hCAII [2] = biological target: T2, hCAII (Homo sapiens, UniProt P00918); assay: colorimetric p-nitrophenyl acetate hCAII activity assay; format: biochemical
T2 construct: made in house; host or cells: Escherichia coli BL21(DE3), pACA plasmid (gift from Carol A. Fierke)
Procedure: To verify that the p-sulfamoyl benzamide MBP retained its binding following ligation with the linker and bulky recruiting group moieties, the inhibition activity of each degrader candidate was determined using a colorimetric p-nitrophenol acetate hCAII activity assay.[46] In short, recombinantly expressed hCAII was preincubated with the degrader candidate before the addition of p-nitrophenyl acetate, a substrate that upon enzymatic cleavage leads to acetic acid and p-nitrophenolate.
Recombinant hCAII was expressed and purified according to the protocol reported in the Supporting Information. […] Wells were prepared to a final volume of 100 μL per well, including buffer (50 mM HEPES, pH 8.0), enzyme (hCAII, 40 nM), inhibitor (varying concentrations), and substrate (p-nitrophenyl acetate, 500 μM). Inhibitors and protein were preincubated for 10 min at rt, and the substrate was added to the reaction mixture immediately before reading. […] The rate of absorbance for each replicate was corrected for substrate autohydrolysis and inherent inhibitor absorbance by subtracting the rate of absorbance from a blank sample lacking enzyme but containing the inhibitor and substrate. Samples lacking inhibitor but containing enzyme and substrate were used to define 100% hCAII activity. Samples lacking inhibitor and enzyme were used to define 0% hCAII activity. IC50 was determined using non-linear regression with a variable slope on the GraphPad Prism software.

[3] = enzyme concentration of 40 nM, read-out: IC50, below the detection limit of the assay
[4] = recombinant hCAII 40 nM, p-nitrophenyl acetate 500 μM, pH 8.0, 95% confidence interval, read-out: IC50 (nM), hCAII inhibition activity (Table S1)

| DMax (maximum percentage of degradation) (hCAII [1]; HEK293 cells) [%] | Structure (SMILES) | Dmax (hCAII [1]) [%] | concentration of maximum degradation (hCAII [1]; HEK293 cells) [nM] | DC50 (hCAII [1]; HEK293 cells, 5 pM to 15 μM, 95% confidence interval, read-out: DC50 (half-maximal degradation)) [nM] | hook effect (attenuation of target degradation at high concentration) (hCAII [1]; HEK293 cells) | IC50 (hCAII [2]; [3]) [nM] | IC50 (hCAII [2]; [4]) [nM] |
| --- | --- | --- | --- | --- | --- | --- | --- |
|  | NS(=O)(=O)c1ccc(C(=O)NCCCOCCCCOCCCNc2cccc3c2C(=O)N(C2CCC(=O)NC2=O)C3=O)cc1 (stereo not drawn) [Compound 4, N-(3-(4-(3-((2-(2,6-Dioxopiperidin-3-yl)-1,3-dioxoisoindolin-4-yl)amino)propoxy)butoxy)propyl)-4-sulfamoylbenzamide] | 96 | 500 | 5 ± 3 | hook effect | ≤ 20 | ≤ 20 |
| 96 | NS(=O)(=O)c1ccc(C(=O)NCCCOCCOCCOCCCNc2cccc3c2C(=O)N(C2CCC(=O)NC2=O)C3=O)cc1 (stereo not drawn) [Compound 5, N-(3-(2-(2-(3-((2-(2,6-Dioxopiperidin-3-yl)-1,3-dioxoisoindolin-4-yl)amino)propoxy)ethoxy)ethoxy)propyl)-4-sulfamoylbenzamide] | 86 | 5000 |  | hook effect | ≤ 20 | ≤ 20 |
